# Experimental data reported in PubChem BioAssay (NCI).
#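 These data come from cells grown in 96-well plates and exposed to compound for 48 hours at five concentrations. GI50 = concentration required for 50% inhibition of growth. TGI marks complete inhibition of growth.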
# Columns and labels:
# Experiment in all cases: NCI-60 cell line screen, 48 h
# SNB-75 CNS = test system: SNB-75 CNS
# A549 NSCLC = test system: A549 NSCLC
# NCI/ADR-RES ovarian = test system: NCI/ADR-RES ovarian
# A498 renal = test system: A498 renal
# OVCAR-3 ovarian = test system: OVCAR-3 ovarian
# RXF 393 renal = test system: RXF 393 renal
# HCC-2998 colon = test system: HCC-2998 colon
# HL-60(TB) leukemia = test system: HL-60(TB) leukemia
# RPMI-8226 leukemia = test system: RPMI-8226 leukemia
# SF-268 CNS = test system: SF-268 CNS
Compound,TGI (SNB-75 CNS) [µM],TGI (A549 NSCLC) [µM],TGI (NCI/ADR-RES ovarian) [µM],TGI (A498 renal) [µM],TGI (OVCAR-3 ovarian) [µM],TGI (RXF 393 renal) [µM],TGI (HCC-2998 colon) [µM],TGI (HL-60(TB) leukemia) [µM],TGI (RPMI-8226 leukemia) [µM],GI50 (SNB-75 CNS) [µM],GI50 (A549 NSCLC) [µM],GI50 (NCI/ADR-RES ovarian) [µM],GI50 (A498 renal) [µM],GI50 (OVCAR-3 ovarian) [µM],GI50 (RXF 393 renal) [µM],GI50 (HCC-2998 colon) [µM],GI50 (HL-60(TB) leukemia) [µM],GI50 (SF-268 CNS) [µM],TGI (SF-268 CNS) [µM],GI50 (RPMI-8226 leukemia) [µM]
Cc1cccc(Nc2cnc(N)nc2N)c1,> 100,> 100,> 100,> 100,> 100,> 100,> 100,> 100,> 100,,,,,,,,,,,
Cc1ccc(-c2nc(N3CCCNCC3)c3oc(-c4ccc(C)cc4)nc3n2)cc1,3.02,3.13,3.74,31.7,3.1,3.14,> 100,0.371,4.22,1.66,1.72,1.96,15.8,1.73,1.65,32.3,0.179,1.77,3.48,1.89
O=S(=O)(NCCNc1nccc(-c2c(-c3ccc(F)cc3)nc3sccn23)n1)c1ccccc1,56.2,> 100,> 100,> 100,76,,> 100,61.7,33,1.61,1.93,5.6,5.23,11.3,,22.4,16.9,6.63,> 100,3.79
CC(C)COC(=O)c1ccc2[nH]c(O)c(C=Nc3ccc(S(N)(=O)=O)cc3)c2c1,5.15,5.88,21.2,5.9,2.28,1.61,9.03,2.38,18.8,1.77,1.74,5.36,2.28,0.802,0.747,3.27,0.68,1.22,4.45,2.55
CC(Br)C(=O)Nc1ccc(C(=O)O)c(O)c1 (configuration not stated),> 100,> 100,> 100,> 100,73.7,> 100,,> 100,> 100,,,,,,,,,,> 100,
O=[N+]([O-])c1ccc(S(=O)(=O)Cc2ccccc2)c2nonc12,98.5,83.8,68,> 100,37.2,33.5,,45.9,64.2,,,,,,,,,,39.3,
CN1C(Cl)=NS(=O)(=O)c2ccccc21,,> 100,> 100,> 100,> 100,> 100,> 100,> 100,,,,,,,,,,,> 100,
CCc1nc(N)nc(N)c1-c1ccc(Cl)c(N=CN(C)C)c1,> 100,> 100,> 100,> 100,> 100,> 100,> 100,> 90.3,> 100,,,,,,,,,,> 100,
O=C1OC(c2ccccc2)=N/C1=C\c1cccc(F)c1,> 100,> 100,69.9,> 100,> 100,> 100,> 100,61.2,50.1,,,,,,,,,,> 100,
CCOC(=O)c1c(C)c(C)n2c1NC(=O)C2,> 74.7,> 100,81.5,> 100,> 100,> 78.2,> 100,> 100,> 100,,,,,,,,,,> 100,
CC1=C(/C=C/C(C)=C/C=C/C(C)=C/CO)C(C)(C)CCC1,,45.5,43.1,42.6,28.4,28.3,36.2,45.3,,,,,,,,,,,52,
ClCc1ccc(Cn2cnc3c(Cl)nc(Cl)nc32)cc1,9.32,37.1,> 100,25.1,4.33,41.5,24,,,3.13,18.6,16.5,12.1,1.99,20.9,10.3,,2.51,5.42,
Cn1c(=O)c(Oc2ccc(F)cc2F)cc2cnc(NCCS(C)(=O)=O)nc21,> 25,> 25,> 25,> 25,> 25,> 25,> 25,> 25,> 25,> 25,> 25,> 25,> 25,> 25,> 25,> 25,> 25,> 25,> 25,> 25
COc1cc2c(c(OC3OC(CO)C(O)C(O)C3O)c1)C(=O)CC(c1ccc(O)cc1)O2 (configuration not stated),> 100,> 100,> 100,> 100,> 100,,> 100,> 100,> 100,,,,,,,,,,> 100,
COc1ccc(-c2nn(-c3cccc(NC(=O)c4ccc(N5CCOCC5)c(C(F)(F)F)c4)c3)cc2-c2ccncc2)cc1Cl,4.95,> 50,24.5,26.4,,23.3,> 50,> 50,> 50,0.797,6.52,3.41,2.44,,1.35,14.1,4.42,13.3,> 50,2.06
COc1ccc(OC)c(Nc2nc(-c3c(C)nc4sccn34)cs2)c1,33.7,> 100,> 100,> 100,> 100,> 100,> 100,> 100,> 100,3.38,> 100,15,1.63,92.7,36.3,> 100,> 100,29.7,> 100,8.91
COC(=O)[C@@H](C)C[C@H](Cc1ccccc1)NC(=O)c1csc([C@@H](C[C@H](C(C)C)N(C)C(=O)[C@H](C)NC(=O)[C@H]2CCCCN2C)OC(C)=O)n1,1.71,> 25,> 25,14.1,> 25,24.2,> 25,,> 25,0.47,8.67,> 25,1.87,0.551,1,1.75,,1.65,> 25,0.567
